Reference: ChEMBL document CHEMBL5715949, “Discovery of a selective irreversible BMX inhibitor for prostate cancer” (ACS Chem Biol, 2013)
Activity calls are given as the source filed them. The calls are words filed in the database; no cut-off is given here.

Tests used:
[1] = Cytotoxicity against mouse BaF3 cells assessed growth inhibition incubated for 2 to 5 days by CellTiter-Glo assay; format: toxicity, cell-based; settings: time 2-5 day
[2] = Down regulation of BMX protein expression in human RV-1 cells expressing wild type BMX assessed protein expression level at 2.5 uM pre incubated for 4 hrs followed by compound wash out and additon of CHX and measured after 24 hrs by immunoblot analysis (reference value: 0.98 to 1.01); format: functional
BaF3 [3] = test: Antiproliferative activity against mouse BaF3 cells expressing TEL-fused JAK1 assessed growth inhibition incubated for 2 to 5 days by CellTiter-Glo assay; format: functional; settings: time 2-5 day
BaF3 [4] = test: Antiproliferative activity against mouse BaF3 cells expressing TEL-fused TYK2 […] mutant assessed growth inhibition incubated for 2 to 5 days by CellTiter-Glo assay; format: functional; settings: time 2-5 day
BaF3 [5] = test: Antiproliferative activity against mouse BaF3 cells expressing TEL-fused JAK3 assessed growth inhibition incubated for 2 to 5 days by CellTiter-Glo assay; format: functional; settings: time 2-5 day
BaF3 [6] = test: Antiproliferative activity against mouse BaF3 cells expressing TEL-fused BMX assessed growth inhibition incubated for 2 to 5 days by CellTiter-Glo assay; format: functional, cell-based; settings: time 2-5 day
RV-1 [7] = test: Down regulation of BMX protein expression in human RV-1 cells expressing wild type BMX at 5 uM incubated for 72 hrs by western blot analysis; format: functional, cell-based
[8] = Down regulation of BMX protein expression in human RV-1 cells expressing BMX C496S mutant assessed protein expression level at 2.5 uM pre incubated for 4 hrs followed by compound wash out and additon of CHX and measured after 16 hrs by immunoblot analysis (reference value: 1.01 to 1.13); format: functional
[9] = Down regulation of BMX protein expression in human RV-1 cells expressing wild type BMX assessed protein expression level at 2.5 uM pre incubated for 4 hrs followed by compound wash out and additon of CHX and measured after 16 hrs by immunoblot analysis (reference value: 0.98 to 1.01); format: functional
BaF3 [10] = test: Antiproliferative activity against mouse BaF3 cells expressing TEL-fused BLK assessed growth inhibition incubated for 2 to 5 days by CellTiter-Glo assay; format: functional; settings: time 2-5 day
RV-1 [11] = test: Down regulation of BMX protein expression in human RV-1 cells expressing BMX C496S mutant at 5 uM incubated for 72 hrs by western blot analysis; format: functional, cell-based
BaF3 [12] = test: Antiproliferative activity against mouse BaF3 cells expressing TEL-fused JAK2 assessed growth inhibition incubated for 2 to 5 days by CellTiter-Glo assay; format: functional; settings: time 2-5 day
[13] = Down regulation of BMX protein expression in human RV-1 cells expressing BMX C496S mutant assessed protein expression level at 2.5 uM pre incubated for 4 hrs followed by compound wash out and additon of CHX and measured after 24 hrs by immunoblot analysis (reference value: 1.01 to 1.13); format: functional
[14] = Inhibition of PI3K/AKT/mTOR signalling pathway in human RV-1 cells assessed as decrease in 4EBP phosphorylation at T37/46 residue at 200 nM incubated for 5 days by immunoblot analysis; format: cell-based; settings: time 5.0 day
[15] = target: Cytoplasmic tyrosine-protein kinase BMX (Homo sapiens) (UniProt P51813); test: Inhibition of BMX (unknown origin) at < 10 uM by Z'LYTE assay
Sequence of Cytoplasmic tyrosine-protein kinase BMX (Homo sapiens) (P51813 whole entry): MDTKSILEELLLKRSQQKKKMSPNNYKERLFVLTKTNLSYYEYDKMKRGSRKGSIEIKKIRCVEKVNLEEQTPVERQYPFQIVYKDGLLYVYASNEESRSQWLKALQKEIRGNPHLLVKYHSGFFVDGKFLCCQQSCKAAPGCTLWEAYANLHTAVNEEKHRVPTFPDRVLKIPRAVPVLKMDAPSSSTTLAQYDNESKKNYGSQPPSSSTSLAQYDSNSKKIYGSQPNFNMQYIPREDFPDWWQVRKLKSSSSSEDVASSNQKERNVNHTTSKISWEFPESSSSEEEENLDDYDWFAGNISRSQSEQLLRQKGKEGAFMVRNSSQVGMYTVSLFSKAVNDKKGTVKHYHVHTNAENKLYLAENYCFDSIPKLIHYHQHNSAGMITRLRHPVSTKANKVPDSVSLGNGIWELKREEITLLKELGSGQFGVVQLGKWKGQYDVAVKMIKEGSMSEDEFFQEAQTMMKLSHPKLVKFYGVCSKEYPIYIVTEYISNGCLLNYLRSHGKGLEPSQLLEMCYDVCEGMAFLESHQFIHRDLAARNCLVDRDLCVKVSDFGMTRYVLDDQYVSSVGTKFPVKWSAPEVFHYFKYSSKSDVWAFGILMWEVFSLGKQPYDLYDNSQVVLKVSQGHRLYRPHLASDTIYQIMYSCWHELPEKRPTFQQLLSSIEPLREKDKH

[16] = Inhibition of PI3K/AKT/mTOR signalling pathway in human RV-1 cells assessed as decrease in AKT phosphorylation at S473 residue at 200 nM incubated for 4 hrs by immunoblot analysis; format: cell-based
[17] = Induction of cell cycle arrest in human RV-1 cells assessed as accumulation of cells at S phase at 200 nM incubated for 5 days by propidium iodide staining based flow cytometric analysis (reference value: 28.9 %); format: functional; settings: time 5 day
[18] = Inhibition of PI3K/AKT/mTOR signalling pathway in human RV-1 cells assessed as decrease in AKT phosphorylation at T308 residue at 200 nM incubated for 4 hrs by immunoblot analysis; format: cell-based
[19] = Induction of cell cycle arrest in human RV-1 cells assessed as accumulation of cells at G1 phase at 200 nM incubated for 5 days by propidium iodide staining based flow cytometric analysis (reference value: 59.7 %); format: functional; settings: time 5 day
[20] = Inhibition of PI3K/AKT/mTOR signalling pathway in human RV-1 cells assessed as decrease in S6K phosphorylation at T389 residue at 200 nM incubated for 5 days by immunoblot analysis; format: cell-based; settings: time 5.0 day
[21] = Inhibition of PI3K/AKT/mTOR signalling pathway in human RV-1 cells assessed as decrease in PRAS40 phosphorylation at T246 residue at 200 nM incubated for 4 hrs by immunoblot analysis; format: cell-based
[22] = Induction of cell cycle arrest in human RV-1 cells assessed as accumulation of cells at G2/M phase at 200 nM incubated for 5 days by propidium iodide staining based flow cytometric analysis (reference value: 11.4 %); format: functional; settings: time 5 day
RV-1 [23] = test: Antiproliferative activity against human RV-1 cells assessed as reduction in cell viability at 1. 5 to 20 uM incubated for 3 days by tryphan blue assay; format: functional, cell-based; settings: dose 5-20 µM, time 3.0 day

Q: Which results are given for `CCC(=O)Nc1cc(-n2c(=O)ccc3cnc4ccc(NS(C)(=O)=O)cc4c32)ccc1C`?
A: GI50 [1]: > 10 µM; Activity [2]: 0.72; GI50 (BaF3 [3]): > 10 µM; GI50 (BaF3 [4]): > 10 µM; GI50 (BaF3 [5]): > 10 µM; GI50 (BaF3 [6]): > 10 µM; Activity (RV-1 [7]): inactive; Activity [8]: 0.8; Activity [9]: 0.64; GI50 (BaF3 [10]): > 10 µM; Activity (RV-1 [11]): inactive; GI50 (BaF3 [12]): > 10 µM; Activity [13]: 0.51

Q: What does the source list for `Cl.NC1(c2ccc(-c3nc4ccn5c(=O)[nH]nc5c4cc3-c3ccccc3)cc2)CCC1`?
A: inhibition [14]: Active; inhibition [15]: inactive; inhibition [16]: Active; Activity [17]: 29.1%; inhibition [18]: Active; Activity [19]: 60%; inhibition [20]: Active; inhibition [21]: Active; Activity [22]: 10.9%

Q: For `C=CC(=O)N1CCC[C@@H](n2nc(-c3ccc(Oc4ccccc4)cc3)c3c(N)ncnc32)C1`, which Activity (RV-1 [23]) is on record?
A: Its Activity is “Active”.
